Measured values: patent US8309726B2, “Substituted piperazine compounds of formula 8” (Council of Scientific & Industrial Research, priority 2007, dated 2012)

How the values were obtained:
Breast cancer cell lines = experiment: In vitro cytotoxicity, breast panel; format: cell-based; conditions: Homo sapiens, average of six to nine different cancer cell lines, 48 h, SRB, read-out: Log GI50 (concentration in mol/L causing 50% growth inhibition) (converted)
Experimental: (§1) In vitro evaluation of cytotoxic activity: Compounds were evaluated for in vitro anticancer activity against sixty human tumour cells derived from nine cancer types (colon, prostate, oral, lung, cervix and breast cancer) as shown in (Table 1, 2 and 3) 8b, 8c, 8d, and 8e, were evaluated for in vitro anticancer activity against sixty human tumour cells derived from nine cancer types (leukemia, non-small-cell lung, colon, CNS, melanoma, ovarian, prostate, and breast cancer) as shown in (Table 2 and 3). For the compound, dose response curves for each cell line were measured at a minimum of five concentrations at 10 fold dilutions. A protocol of 48 h continuous drug exposure was used and a sulforhodamine B (SRB) protein assay was used to estimate cell viability or growth. The concentration causing 50% cell growth inhibition (GI50), total cell growth inhibition (TGI 0% growth) and 50% cell death (LC50, −50% growth) compared with the control was calculated. The mean graph midpoint values of log10 TGI and log10 LC50 as well as log10 GI50 for 8a, 8b, 8c, 8d, and 8e, are listed in (Table 2 and 3).
(§2) Each cancer type represents the average of six to nine different cancer cell lines. The compounds 8a, 8b, 8c, 8d, 8e and 8f were evaluated for in vitro anticancer activity against sixty human tumour cells derived from nine cancer types (leukemia, colon, prostate, renal melanoma CNS, lung, cervix and breast cancer) as shown in Table 3. Compounds 8b, 8c, 8d and 8e show promising cytotoxicity against some cancer cell lines (Table 2). Compounds 8b, 8c, 8d and 8e have been evaluated for their in vitro cytotoxicity in selected human cancer cell lines of colon (Colo205), lung (Hop-62), cervix (SiHa), prostate (DU145, PC3), oral (DWD, HT1080), and breast (MCF7, Zr-75-1) origin. A protocol of 48 h continuous drug exposure has been used and an […] has been used to estimate cell viability or growth. The results are expressed as percent of cell growth determined relative to that of untreated control cells. […] In the breast cancer panel, the growth of BT-549, MCF-7 cell lines are 10.3, and 17.6. In the prostate cancer panel, the growth of DU-145, PC-3 cell lines are 11.3, and 19.2. The GI50 values of compound In the CNS cancer panel, the growth of SF-539, SNB-75 cell lines are […]. […] In vitro cytotoxicity of compounds 8a, and 8b in selected cancer cell lines has been illustrated in Table 3. The average GI50 values for each cancer panel of compounds 8b, 8c, 8d and 8e have been illustrated in above Table 2 and 3

[1] = tested on: Melanoma cancer cell lines; experiment: In vitro cytotoxicity, melanoma panel; format: cell-based; conditions: Homo sapiens, average of six to nine different cancer cell lines, 48 h, SRB, read-out: Log GI50 (concentration in mol/L causing 50% growth inhibition) (converted)
Experimental: as §1, §2

Colon cancer cell lines = experiment: In vitro cytotoxicity, colon panel; format: cell-based; conditions: Homo sapiens, average of six to nine different cancer cell lines, 48 h, SRB, read-out: Log GI50 (concentration in mol/L causing 50% growth inhibition) (converted)
Experimental: as §1, §2

calf thymus (CT) DNA = experiment: Thermal denaturation studies with duplex-form calf thymus DNA; format: binding; conditions: for ΔTm (° C.) after incubation at 37° C. for 0 h / ΔTm (° C.) after incubation at 37° C. for 18 h / ΔTm (° C.) after incubation at 37° C. for 36 h: [ANCD]/[DNA] molar ratio 1:5, CT-DNA 100 μM, ligand 20 μM, sodium phosphate buffer pH 7.00; for ΔTm (° C.) after incubation at 37° C. for 0 h: 0 h at 37° C.; for ΔTm (° C.) after incubation at 37° C. for 18 h: 18 h at 37° C.; for ΔTm (° C.) after incubation at 37° C. for 36 h: 36 h at 37° C.; for Course of ΔTm over incubation at 0 hr, 18 hr and 36 hr: incubation at 37° C., [ANCD]/[DNA] 1:5
Experimental: Compounds were subjected to thermal denaturation studies with duplex-form calf thymus DNA (CT-DNA) using an adaptation of a reported procedure. Working solutions in aqueous buffer (10 mM NaH2PO4/Na2HPO4, 1 mM Na2EDTA, pH 7.00+/−0.01) containing CT-DNA (100 μM in phosphate) and the PBD (20 μM) were prepared by addition of concentrated ANCD solutions in DMSO to obtain a fixed [ANCD]/[DNA] molar ratio of 1:5. The DNA-ANCD solutions were incubated at 37° C. for 0, 18, and 36 h prior to analysis. Samples were monitored at 260 nm using a Beckman DU-7400 spectrophotometer fitted with high performance temperature controller, and heating was applied at 1° C. min^−1 in the 40-90° C. range. DNA helix coil transition temperatures (Tm) were obtained from the maxima in the (dA260)/dT derivative plots. Results are given as the mean+/−standard deviation from three determinations and are corrected for the effects of DMSO co-solvent using a linear correction term. Drug-induced alterations in DNA melting behaviour are given by: ΔTm=Tm (DNA+ANCD)−Tm (DNA alone), where the Tm value for the ANCD-free CT-DNA is 69.0+/−0.01.

human tumour cell lines = experiment: In vitro anticancer activity against sixty human tumour cell lines (NCI, SRB assay); format: cell-based; conditions: for Log10LC50 mean graph midpoint (MG_MID): 50% cell death; for Log10LC50 mean graph midpoint (MG_MID) / Log10GI50 mean graph midpoint (MG_MID) / Log10TGI50 mean graph midpoint (MG_MID): 48 h continuous drug exposure, SRB assay; for Log10GI50 mean graph midpoint (MG_MID): 50% cell growth inhibition; for GI50: Homo sapiens; for antiproliferative activity: against most of the tested cell lines; for Log10TGI50 mean graph midpoint (MG_MID): total cell growth inhibition
Experimental: as §1, §2

[2] = tested on: Leukemia cancer cell lines; experiment: In vitro cytotoxicity, leukemia panel; format: cell-based; conditions: Homo sapiens, average of six to nine different cancer cell lines, 48 h, SRB, read-out: Log GI50 (concentration in mol/L causing 50% growth inhibition) (converted)
Experimental: as §1, §2

[3] = tested on: Nonsmall-cell-lung cancer cell lines; experiment: In vitro cytotoxicity, non-small-cell lung panel; format: cell-based; conditions: Homo sapiens, average of six to nine different cancer cell lines, 48 h, SRB, read-out: Log GI50 (concentration in mol/L causing 50% growth inhibition) (converted)
Experimental: as §1, §2

CNS cancer cell lines = experiment: In vitro cytotoxicity, CNS panel; format: cell-based; conditions: Homo sapiens, average of six to nine different cancer cell lines, 48 h, SRB, read-out: Log GI50 (concentration in mol/L causing 50% growth inhibition) (converted)
Experimental: as §1, §2

Renal cancer cell lines = experiment: In vitro cytotoxicity, renal panel; format: cell-based; conditions: Homo sapiens, average of six to nine different cancer cell lines, 48 h, SRB, read-out: Log GI50 (concentration in mol/L causing 50% growth inhibition) (converted)
Experimental: as §1, §2

[4] = tested on: Ovarian cancer cell lines; experiment: In vitro cytotoxicity, ovarian panel; format: cell-based; conditions: Homo sapiens, average of six to nine different cancer cell lines, 48 h, SRB, read-out: Log GI50 (concentration in mol/L causing 50% growth inhibition) (converted)
Experimental: as §1, §2

[5] = tested on: Prostate cancer cell lines; experiment: In vitro cytotoxicity, prostate panel; format: cell-based; conditions: Homo sapiens, average of six to nine different cancer cell lines, 48 h, SRB, read-out: Log GI50 (concentration in mol/L causing 50% growth inhibition) (converted)
Experimental: as §1, §2

[6] = tested on: CNS SF-295, SF-539, SNB-19 and SNB-75 cell lines; experiment: In vitro cytotoxicity, CNS cell lines SF-295, SF-539, SNB-19, SNB-75; format: cell-based; conditions: Homo sapiens; range over CNS SF-295, SF-539, SNB-19 and SNB-75
Experimental: (§3) In vitro evaluation of cytotoxic activity: Compounds were evaluated for in vitro anticancer activity against sixty human tumour cells derived from nine cancer types (colon, prostate, oral, lung, cervix and breast cancer) as shown in (Table 1, 2 and 3) 8b, 8c, 8d, and 8e, were evaluated for in vitro anticancer activity against sixty human tumour cells derived from nine cancer types (leukemia, non-small-cell lung, colon, CNS, melanoma, ovarian, prostate, and breast cancer) as shown in (Table 2 and 3). For the compound, dose response curves for each cell line were measured at a minimum of five concentrations at 10 fold dilutions. […]
(§4) Each cancer type represents the average of six to nine different cancer cell lines. The compounds 8a, 8b, 8c, 8d, 8e and 8f were evaluated for in vitro anticancer activity against sixty human tumour cells derived from nine cancer types (leukemia, colon, prostate, renal melanoma CNS, lung, cervix and breast cancer) as shown in Table 3. […] Compounds 8b, 8c, 8d and 8e have been evaluated for their in vitro cytotoxicity in selected human cancer cell lines of colon (Colo205), lung (Hop-62), cervix (SiHa), prostate (DU145, PC3), oral (DWD, HT1080), and breast (MCF7, Zr-75-1) origin. […] The results are expressed as percent of cell growth determined relative to that of untreated control cells. […]

[7] = tested on: COLO 205 cell line (colon cancer); experiment: In vitro cytotoxicity, COLO 205; format: cell-based; conditions: Homo sapiens; colon cancer COLO 205
Experimental: as §3, §4

[8] = tested on: HCT-116 cell line (colon cancer); experiment: In vitro cytotoxicity, HCT-116; format: cell-based; conditions: Homo sapiens; colon cancer HCT-116
Experimental: as §3, §4

[9] = tested on: renal and prostate cancer panels; experiment: In vitro cytotoxicity, renal and prostate cancer panels; format: cell-based; conditions: Homo sapiens; range over renal and prostate cancer panels
Experimental: as §3, §4

[10] = tested on: KM12 cell line (colon cancer); experiment: In vitro cytotoxicity, KM12; format: cell-based; conditions: Homo sapiens
Experimental: as §3, §4

[11] = tested on: T47D cell line (breast cancer); experiment: In vitro cytotoxicity, T47D; format: cell-based; conditions: Homo sapiens, breast cancer cell panel
Experimental: as §3, §4

[12] = tested on: MCF-7 cell line (breast cancer); experiment: In vitro cytotoxicity, MCF-7; format: cell-based; conditions: Homo sapiens, MCF7; MCF-7, breast cancer cell panel; read-out: GI50
Experimental: as §3, §4

[13] = sixty cell lines in nine cell panels

Compound	GI50 (Breast cancer cell lines) [µM]	GI50 [1] [µM]	GI50 (Colon cancer cell lines) [µM]	ΔTm (° C.) after incubation at 37° C. for 0 h (calf thymus (CT) DNA) [°C]	ΔTm (° C.) after incubation at 37° C. for 18 h (calf thymus (CT) DNA) [°C]	ΔTm (° C.) after incubation at 37° C. for 36 h (calf thymus (CT) DNA) [°C]	Course of ΔTm over incubation at 0 hr, 18 hr and 36 hr (calf thymus (CT) DNA)	Log10LC50 mean graph midpoint (MG_MID) (human tumour cell lines)	Log10GI50 mean graph midpoint (MG_MID) (human tumour cell lines)	GI50 (human tumour cell lines; [13]) [µM]	antiproliferative activity (human tumour cell lines)	Log10TGI50 mean graph midpoint (MG_MID) (human tumour cell lines)	GI50 [2] [µM]	GI50 [3] [µM]	GI50 (CNS cancer cell lines) [µM]	GI50 (Renal cancer cell lines) [µM]	GI50 [4] [µM]	GI50 [5] [µM]	also measured
COc1cc(C(=O)N2CCN(c3ccccc3OC)CC2)c(N)cc1OCc1ccccc1 [Compound 8a, [2-amino-4-(benzyloxy)-5-methoxyphenyl][4-(2-methoxyphenyl)piperazino]methanone]	3.39	4.47	8.51	1.2	1.7	2.2	gradually increased	−4.19	−5.47	< 20	nanomolar to low micromolar concentrations	−5.24	5.5	3.63	5.89	5.62	5.75	6.61	
COc1cc(C(=O)N2CCN(c3ncccn3)CC2)c(N)cc1OCc1ccccc1 [Compound 8c, [2-amino-4-(benzyloxy)-5-methoxyphenyl][4-(2-pyrimidinyl)piperazino]methanone]	6.76	1.78	3.39	1.4	1.6	2.3	gradually increased	−4.47	−5.47		nanomolar to low micromolar concentrations	−5.47	5.5	7.24	5.89	5.62	5.75	16.6	
COc1cc(C(=O)N2CCN(c3ncnc4ccccc34)CC2)c(N)cc1OCc1ccccc1 [Compound 8d, [2-amino-4-(benzyloxy)-5-methoxyphenyl][4-(4-quinazolinyl)piperazino]methanone]	7.08	7.24	5.13	1.5	1.9	2.7	gradually increased	−4.62	−5.62	< 20	nanomolar to low micromolar concentrations	−5.62	4.07	1.35	1.78	5.5	11.7	7.24	GI50 [6]: 11.8 to 24.2 µM; GI50 [7]: 11.2 µM; GI50 [8]: 16.3 µM; GI50 [9]: 1.16 to 32.4 µM; GI50 [10]: 14.6 µM; GI50 [11]: 13.2 µM; GI50 [12]: 12.6 µM
COc1cc(C(=O)NC2c3ccccc3-c3ccccc32)c(N)cc1OCc1ccccc1 [Compound 8e, N1-(9H-9-fluorenyl)-2-amino-4-(benzyloxy)-5-methoxybenzamide]	≤ 0.01	1.78	1.7	1.9	2.3	2.8	gradually increased	−4.19	−6.47	< 20	nanomolar to low micromolar concentrations	−6.06	4.27	1.38	5.5	15.1	10	0.355	GI50 (human tumour cell lines; fifty-seven cell lines in nine cancer cell panels): < 10 µM
